Experimental data: US7994140B2, “Classes of compounds that interact with GPCRs” (Alchemia Limited, priority 2002, dated 2011)

Key:
SST5 = target: T1, SST5 (Homo sapiens, UniProt P35346); test: GPCR radioligand binding (RLB) assay, somatostatin SST5, [125I]SST-14; details: for SST5 inhibition at 10 micromolar: 10 micromolar compound, recombinant human receptor membranes (HEK 293); for SSTS inhibition at 10 micromolar: Example Library 4
T1 construct: purchased Perkin Elmer BioSignal; host or cells: HEK 293
T1 sequence (P35346 whole entry): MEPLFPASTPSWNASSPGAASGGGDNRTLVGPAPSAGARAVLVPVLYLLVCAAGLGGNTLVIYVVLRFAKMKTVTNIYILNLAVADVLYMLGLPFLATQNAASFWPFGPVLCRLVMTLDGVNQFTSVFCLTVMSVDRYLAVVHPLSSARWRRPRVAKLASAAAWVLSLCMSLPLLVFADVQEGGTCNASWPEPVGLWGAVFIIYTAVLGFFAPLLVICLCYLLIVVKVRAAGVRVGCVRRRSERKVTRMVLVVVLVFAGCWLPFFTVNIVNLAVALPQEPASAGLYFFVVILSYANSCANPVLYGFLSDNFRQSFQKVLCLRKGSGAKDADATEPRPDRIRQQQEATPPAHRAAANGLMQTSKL
Method in brief: (§1)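 Membranes from HEK 293 cells expressing the recombinant human receptor were equilibrated with [125I]SST-14 (SST5) or [125I]NDP-αMSH (MC4), then compound added for an optimized incubation. Bound ligand separated by filtration on PEI-coated glass fiber and counted by liquid scintillation.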

MC4 = target: T2, MC4 (Homo sapiens, UniProt P32245); test: GPCR radioligand binding (RLB) assay, melanocortin MC4, [125I]NDP-αMSH
T2 construct: purchased Perkin Elmer BioSignal; host or cells: HEK 293
T2 sequence (P32245 whole entry): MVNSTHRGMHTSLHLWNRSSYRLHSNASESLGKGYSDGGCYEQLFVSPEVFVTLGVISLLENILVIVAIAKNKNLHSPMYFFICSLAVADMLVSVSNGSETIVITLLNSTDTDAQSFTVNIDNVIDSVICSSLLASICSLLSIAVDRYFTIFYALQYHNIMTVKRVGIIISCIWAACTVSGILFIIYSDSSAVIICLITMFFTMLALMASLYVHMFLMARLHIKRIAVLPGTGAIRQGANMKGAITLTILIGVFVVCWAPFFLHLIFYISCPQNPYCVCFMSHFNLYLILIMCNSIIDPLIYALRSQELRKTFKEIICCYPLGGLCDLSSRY
Method in brief: as §1

[1] = 10 micromolar compound, recombinant human receptor membranes (HEK 293)
[2] = 10 micromolar, Example Library 4

Q: What does the source list for `CSC1OC(COCc2ccc3ccccc3c2)C(O)C(OCc2ccc3ccccc3c2)C1NC(=O)CN` (stereo not drawn) [Compound 209]?
A: SST5 inhibition at 10 micromolar (SST5): + (Indicates inhibition greater than . . . 50%); MC4 inhibition at 10 micromolar (MC4; [1]): + (Indicates inhibition greater than . . . 50%)

Q: For `COCC1OC(OCc2ccc3ccccc3c2)C(NC(=O)CCCN)C(OCc2ccc(-c3ccccc3)cc2)C1O` (stereo not drawn) [Compound 300], which “SSTS inhibition at 10 micromolar” value (SST5) is on record?
A: Its value is “+ (Indicates inhibition greater than . . . 50%)”.

Q: And the “MC4 inhibition at 10 micromolar” value (MC4; [2])?
A: Its value is “+ (Indicates inhibition greater than . . . 50%)”.

Q: Which results are given for `COC[C@H]1OC(OCc2ccc3ccccc3c2)[C@H](NC(=O)CCCN)[C@@H](OCc2ccc3ccccc3c2)[C@@H]1O` (stereo partly drawn) [Compound 39]?
A: SST5 inhibition at 10 micromolar (SST5): + (Indicates inhibition greater than . . . 50%); MC4 inhibition at 10 micromolar (MC4; [1]): + (Indicates inhibition greater than . . . 50%)

Q: `CSC1OC(COCc2ccc(-c3ccccc3)cc2)C(O)C(OCc2ccccc2)C1NC(=O)CCCNC(=N)N` (stereo not drawn) [Compound 136] was tested. Which “SST5 inhibition at 10 micromolar” value (SST5) did it give?
A: Its value is “+ (Indicates inhibition greater than . . . 50%)”.

Q: And the “MC4 inhibition at 10 micromolar” value (MC4; [1])?
A: Its value is “+ (Indicates inhibition greater than . . . 50%)”.

Q: How did the “SST5 inhibition at 10 micromolar” value (SST5) turn out when `CSC1OC(COCc2ccc3ccccc3c2)C(O)C(OCc2ccc(-c3ccccc3)cc2)C1NC(=O)CCCNC(=N)N` (stereo not drawn) [Compound 190] was run?
A: Its value is “+ (Indicates inhibition greater than . . . 50%)”.

Q: What about the “MC4 inhibition at 10 micromolar” value (MC4; [1]) of the same molecule?
A: Its value is “+ (Indicates inhibition greater than . . . 50%)”.

Q: What does the source list for `CSC1OC(COCc2ccc3ccccc3c2)C(O)C(OCc2ccc(Cl)cc2)C1NC(=O)CNC(=N)N` (stereo not drawn) [Compound 162]?
A: SST5 inhibition at 10 micromolar (SST5): + (Indicates inhibition greater than . . . 50%); MC4 inhibition at 10 micromolar (MC4; [1]): + (Indicates inhibition greater than . . . 50%)

Q: `COCC1OC(OCCc2ccccc2)C(NC(=O)CCCNC(=N)N)C(OCc2ccc(-c3ccccc3)cc2)C1O` (stereo not drawn) [Compound 277] was tested. Which “SSTS inhibition at 10 micromolar” value (SST5) did it give?
A: The value was “+ (Indicates inhibition greater than . . . 50%)”.

Q: And the “MC4 inhibition at 10 micromolar” value (MC4; [2])?
A: The value was “+ (Indicates inhibition greater than . . . 50%)”.

Q: What does the source list for `COCC1OC(OCCc2ccccc2)C(NC(=O)CCCN)C(OCc2ccc(-c3ccccc3)cc2)C1O` (stereo not drawn) [Compound 276]?
A: SSTS inhibition at 10 micromolar (SST5): + (Indicates inhibition greater than . . . 50%); MC4 inhibition at 10 micromolar (MC4; [2]): + (Indicates inhibition greater than . . . 50%)

Q: `COC[C@H]1OC(OCc2ccc(Cl)cc2)[C@H](NC(=O)CCCNC(=N)N)[C@@H](OCc2ccc3ccccc3c2)[C@@H]1O` (stereo partly drawn) [Compound 15] was tested. Which “SST5 inhibition at 10 micromolar” value (SST5) did it give?
A: Its value is “+ (Indicates inhibition greater than . . . 50%)”.

Q: What about the “MC4 inhibition at 10 micromolar” value (MC4; [1]) of the same molecule?
A: The value was “+ (Indicates inhibition greater than . . . 50%)”.

Q: For `COC[C@H]1OC(OCCc2ccccc2)[C@H](NC(=O)CCCNC(=N)N)[C@@H](OCc2ccc(-c3ccccc3)cc2)[C@@H]1O` (stereo partly drawn) [Compound 49], which “SST5 inhibition at 10 micromolar” value (SST5) is on record?
A: Its value is “+ (Indicates inhibition greater than . . . 50%)”.

Q: What about the “MC4 inhibition at 10 micromolar” value (MC4; [1]) of the same molecule?
A: Its value is “+ (Indicates inhibition greater than . . . 50%)”.

Q: What does the source list for `CSC1OC(COCc2ccc(Cl)cc2)C(O)C(OCc2ccc3ccccc3c2)C1NC(=O)CCCNC(=N)N` (stereo not drawn) [Compound 202]?
A: SST5 inhibition at 10 micromolar (SST5): + (Indicates inhibition greater than . . . 50%); MC4 inhibition at 10 micromolar (MC4; [1]): + (Indicates inhibition greater than . . . 50%)

Q: Which “SST5 inhibition at 10 micromolar” value (SST5) does the source give for `CSC1OC(COCc2ccc3ccccc3c2)C(O)C(OCc2ccc3ccccc3c2)C1NC(=O)CNC(=N)N` (stereo not drawn) [Compound 210] here?
A: Its value is “+ (Indicates inhibition greater than . . . 50%)”.

Q: What about the “MC4 inhibition at 10 micromolar” value (MC4; [1]) of the same molecule?
A: Its value is “+ (Indicates inhibition greater than . . . 50%)”.

Q: Which “SST5 inhibition at 10 micromolar” value (SST5) does the source give for `CSC1OC(COCc2ccc3ccccc3c2)C(O)C(OCc2ccc(Cl)cc2)C1NC(=O)CCCN` (stereo not drawn) [Compound 165] here?
A: Its value is “+ (Indicates inhibition greater than . . . 50%)”.

Q: And the “MC4 inhibition at 10 micromolar” value (MC4; [1])?
A: Its value is “+ (Indicates inhibition greater than . . . 50%)”.

Q: `CSC1OC(COCc2ccccc2)C(O)C(OCc2ccc(-c3ccccc3)cc2)C1NC(=O)CCCNC(=N)N` (stereo not drawn) [Compound 172] was tested. Which “SST5 inhibition at 10 micromolar” value (SST5) did it give?
A: The value was “+ (Indicates inhibition greater than . . . 50%)”.

Q: And the “MC4 inhibition at 10 micromolar” value (MC4; [1])?
A: The value was “+ (Indicates inhibition greater than . . . 50%)”.

Q: Which “SST5 inhibition at 10 micromolar” value (SST5) does the source give for `COC[C@H]1OC(OCc2ccc(-c3ccccc3)cc2)[C@H](NC(=O)CCCNC(=N)N)[C@@H](OCc2ccc(-c3ccccc3)cc2)[C@@H]1O` (stereo partly drawn) [Compound 29] here?
A: The value was “+ (Indicates inhibition greater than . . . 50%)”.

Q: What about the “MC4 inhibition at 10 micromolar” value (MC4; [1]) of the same molecule?
A: The value was “+ (Indicates inhibition greater than . . . 50%)”.

Q: Which results are given for `COC[C@H]1OC(OCc2ccc(-c3ccccc3)cc2)[C@H](NC(=O)CCCNC(=N)N)[C@@H](OCc2ccc3ccccc3c2)[C@@H]1O` (stereo partly drawn) [Compound 30]?
A: SST5 inhibition at 10 micromolar (SST5): + (Indicates inhibition greater than . . . 50%); MC4 inhibition at 10 micromolar (MC4; [1]): + (Indicates inhibition greater than . . . 50%)

Q: What does the source list for `CSC1OC(COCc2ccccc2)C(O)C(OCc2ccc3ccccc3c2)C1NC(=O)CCCN` (stereo not drawn) [Compound 195]?
A: SST5 inhibition at 10 micromolar (SST5): + (Indicates inhibition greater than . . . 50%); MC4 inhibition at 10 micromolar (MC4; [1]): + (Indicates inhibition greater than . . . 50%)

Q: What does the source list for `COC[C@H]1OC(OCc2ccccc2)[C@H](NC(=O)CCNC(=N)N)[C@@H](OCc2ccc(-c3ccccc3)cc2)[C@@H]1O` (stereo partly drawn) [Compound 6]?
A: SST5 inhibition at 10 micromolar (SST5): + (Indicates inhibition greater than . . . 50%); MC4 inhibition at 10 micromolar (MC4; [1]): + (Indicates inhibition greater than . . . 50%)

Q: How did the “SST5 inhibition at 10 micromolar” value (SST5) turn out when `CSC1OC(COCc2ccc(-c3ccccc3)cc2)C(O)C(OCc2ccc(-c3ccccc3)cc2)C1NC(=O)CCCN` (stereo not drawn) [Compound 183] was run?
A: Its value is “+ (Indicates inhibition greater than . . . 50%)”.

Q: And the “MC4 inhibition at 10 micromolar” value (MC4; [1])?
A: The value was “+ (Indicates inhibition greater than . . . 50%)”.

Q: Which results are given for `CSC1OC(COCc2ccc(Cl)cc2)C(O)C(OCc2ccc(-c3ccccc3)cc2)C1NC(=O)CN` (stereo not drawn) [Compound 173]?
A: SST5 inhibition at 10 micromolar (SST5): + (Indicates inhibition greater than . . . 50%); MC4 inhibition at 10 micromolar (MC4; [1]): + (Indicates inhibition greater than . . . 50%)

Q: What does the source list for `COCC1OC(OCc2ccc(Cl)cc2)C(NC(=O)CCCNC(=N)N)C(OCc2ccc(Cl)cc2)C1O` (stereo not drawn) [Compound 247]?
A: SSTS inhibition at 10 micromolar (SST5): + (Indicates inhibition greater than . . . 50%); MC4 inhibition at 10 micromolar (MC4; [2]): + (Indicates inhibition greater than . . . 50%)

Q: For `CSC1OC(COCc2ccccc2)C(O)C(OCc2ccc3ccccc3c2)C1NC(=O)CNC(=N)N` (stereo not drawn) [Compound 192], which “SST5 inhibition at 10 micromolar” value (SST5) is on record?
A: Its value is “+ (Indicates inhibition greater than . . . 50%)”.

Q: And the “MC4 inhibition at 10 micromolar” value (MC4; [1])?
A: Its value is “+ (Indicates inhibition greater than . . . 50%)”.

Q: Which “SSTS inhibition at 10 micromolar” value (SST5) does the source give for `COCC1OC(OCc2ccccc2)C(NC(=O)CCCNC(=N)N)C(OCc2ccc3ccccc3c2)C1O` (stereo not drawn) [Compound 236] here?
A: Its value is “+ (Indicates inhibition greater than . . . 50%)”.

Q: What about the “MC4 inhibition at 10 micromolar” value (MC4; [2]) of the same molecule?
A: Its value is “+ (Indicates inhibition greater than . . . 50%)”.

Q: Which “SST5 inhibition at 10 micromolar” value (SST5) does the source give for `CSC1OC(COCc2ccc(Cl)cc2)C(O)C(OCc2ccccc2)C1NC(=O)CNC(=N)N` (stereo not drawn) [Compound 126] here?
A: Its value is “+ (Indicates inhibition greater than . . . 50%)”.

Q: What about the “MC4 inhibition at 10 micromolar” value (MC4; [1]) of the same molecule?
A: The value was “+ (Indicates inhibition greater than . . . 50%)”.

Q: Which results are given for `COCC1OC(OCc2ccccc2)C(NC(=O)CNC(=N)N)C(OCc2ccc(-c3ccccc3)cc2)C1O` (stereo not drawn) [Compound 226]?
A: SSTS inhibition at 10 micromolar (SST5): + (Indicates inhibition greater than . . . 50%); MC4 inhibition at 10 micromolar (MC4; [2]): + (Indicates inhibition greater than . . . 50%)

Q: How did the “SST5 inhibition at 10 micromolar” value (SST5) turn out when `COC[C@H]1OC(OCc2ccc3ccccc3c2)[C@H](NC(=O)CCCN)[C@@H](OCc2ccc(-c3ccccc3)cc2)[C@@H]1O` (stereo partly drawn) [Compound 37] was run?
A: Its value is “+ (Indicates inhibition greater than . . . 50%)”.

Q: And the “MC4 inhibition at 10 micromolar” value (MC4; [1])?
A: The value was “+ (Indicates inhibition greater than . . . 50%)”.

Q: With `COCC1OC(OCc2ccc3ccccc3c2)C(NC(=O)CNC(=N)N)C(OCc2ccc3ccccc3c2)C1O` (stereo not drawn) [Compound 303] as the molecule, how does the “SSTS inhibition at 10 micromolar” value (SST5) read?
A: Its value is “+ (Indicates inhibition greater than . . . 50%)”.

Q: And the “MC4 inhibition at 10 micromolar” value (MC4; [2])?
A: Its value is “+ (Indicates inhibition greater than . . . 50%)”.
